This note sets out measurements from patent US20250340572A1, “COMPOSITIONS USEFUL FOR MODULATING SPLICING” (Skyhawk Therapeutics, Inc., priority 2022, published 2025).

Test [1] relates to ATXN3 transcripts containing exon 4 (E4E5). Put plainly: ATXN3 quantitative splicing assay (qPCR, E4E5 primers/probe). In kind it is cell-based. Particulars: Homo sapiens; SK-N-MC cells, 24 h treatment, qPCR of exon 4 containing transcripts. As for the experimental part: Human neuroblastoma SK-N-MC cells were plated in 384-well plates at 20,000 cells/well. Twenty-four hours after plating, cells were treated with compounds for 24 h at appropriate concentrations ranging from 30 μM to 0.6 nM (0.300 DMSO). Treated cells were lysed in 15 μL of lysis buffer, and cDNA was synthesized using the Fast Advanced Cells-to-Ct kit. Two μL of each cDNA was used in qPCR reactions to confirm the exon 4 skipped transcripts of ATXN3. A second set of primers/probe E4E5 was used to detect the transcripts containing exon 4. The third set of primers/probe E8E9 was used to detect total gene level of ATXN3. The qPCR reactions were prepared in 384-well plates in 10 μL volume, using TaqMan™ Fast Advanced Master Mix with primers and probes shown in the table below. Reactions were run in a Quant Studio 6 qPCR instrument with default settings.
The primers and probes are listed below in Table 5.

In another test the test system is total ATXN3 protein. Put plainly: ATXN3 total protein assay (MSD). The test is classed as cell-based. Particulars: Homo sapiens, SK-N-MC cells, 48 h incubation. Here is the method:
Human neuroblastoma SK-N-MC cells were seeded at 10,000 cells/well in 384 well plates one day prior to compound treatment. The concentrations of compounds were tested at appropriate doses ranging from 30 μM to 0.6 nM. After incubation for 48 hours, the cells were lysed with 25 μL of lysis buffer containing protease inhibitors, and total ATXN3 protein levels were assessed by Mesoscale Discovery (MSD) assay developed with one pair of anti-ATXN3 antibodies. The capture and detect antibodies were raised in mouse and rabbit respectively. Anti-rabbit MSD-ST antibody was used for secondary antibody.
ATXN3 recombinant protein was used for standards. The readouts were captured with 35 μL of MSD read buffer and multi-array 384-well high binding plates.

Turning to `CC#Cc1c(C[C@H](C)N)sc2c(NCc3cccs3)snc12` [Compound 1, 7-[(S)-2-aminopropyl]-8-(1-propynyl)-4-thenylamino-3,6-dithia-2-azabicyclo[3.3.0]octa-1,4,7-triene], the IC50 (in test [1]; in the test on total ATXN3 protein) was 101 to 500 nM each time.

For `C[C@H](N)Cc1sc2c(NCc3cccs3)snc2c1C#Cc1ccccc1` [Compound 2, 7-[(S)-2-aminopropyl]-8-(2-phenylethynyl)-4-thenylamino-3,6-dithia-2-azabicyclo[3.3.0]octa-1,4,7-triene], the half-maximal inhibitory concentration (IC50) in test [1] fell in the range of 5000 to 10000 nM; with total ATXN3 protein, 501 to 5000 nM.

`CC(C)C#Cc1c(C[C@H](C)N)sc2c(NCc3cccs3)snc12` [Compound 4, 7-[(S)-2-aminopropyl]-8-(3-methyl-1-butynyl)-4-thenylamino-3,6-dithia-2-azabicyclo[3.3.0]octa-1,4,7-triene]: the IC50 (in test [1]; in the test on total ATXN3 protein) was 5000 to 10000 nM throughout.

For the compound `CC(C)C#Cc1c(C[C@H](C)N)sc2c(NCc3ccco3)snc12` [Compound 5, 7-[(S)-2-aminopropyl]-4-(furfurylamino)-8-(3-methyl-1-butynyl)-3,6-dithia-2-azabicyclo[3.3.0]octa-1,4,7-triene], the IC50 (in test [1]; in the test with total ATXN3 protein) was 501 to 5000 nM each time.

Take `C[C@H](N)Cc1sc2c(NCc3cccs3)snc2c1C#CC1CC1` [Compound 6, 7-[(S)-2-aminopropyl]-8-(2-cyclopropylethynyl)-4-thenylamino-3,6-dithia-2-azabicyclo[3.3.0]octa-1,4,7-triene]: the IC50 in test [1] lay in the range of 101 to 500 nM; with total ATXN3 protein it was 501 to 5000 nM.

For `C[C@H](N)Cc1sc2c(NCc3ccco3)snc2c1C#CC1CC1` [Compound 7, 7-[(S)-2-aminopropyl]-8-(2-cyclopropylethynyl)-4-(furfurylamino)-3,6-dithia-2-azabicyclo[3.3.0]octa-1,4,7-triene], the IC50 in test [1] fell in the range of 101 to 500 nM; in the test on total ATXN3 protein it was 501 to 5000 nM.

`CC#Cc1c(C[C@@H](N)CO)sc2c(NCc3cccs3)snc12` [Compound 8, (R)-2-amino-3-{8-(1-propynyl)-4-thenylamino-3,6-dithia-2-azabicyclo[3.3.0]octa-1,4,7-trien-7-yl}-1-propanol]: the IC50 in test [1] lay within 0.01 to 100 nM; with total ATXN3 protein it was 101 to 500 nM.

`CC#Cc1c(C[C@@H](N)CO)sc2c(NCc3ccco3)snc12` [Compound 9, (R)-2-amino-3-{4-(furfurylamino)-8-(1-propynyl)-3,6-dithia-2-azabicyclo[3.3.0]octa-1,4,7-trien-7-yl}-1-propanol]: the IC50 (in test [1]; in the test with total ATXN3 protein) was 0.01 to 100 nM in each case.

For `CC#Cc1c(C[C@H](C)N)sc2c(NCc3ccco3)snc12` [Compound 10, 7-[(S)-2-aminopropyl]-4-(furfurylamino)-8-(1-propynyl)-3,6-dithia-2-azabicyclo[3.3.0]octa-1,4,7-triene], the IC50 (in test [1]; in the test on total ATXN3 protein) was 101 to 500 nM each time.

As to `COCC#Cc1c(C[C@H](C)N)sc2c(NCc3ccco3)snc12` [Compound 11, 7-[(S)-2-aminopropyl]-4-(furfurylamino)-8-(3-methoxy-1-propynyl)-3,6-dithia-2-azabicyclo[3.3.0]octa-1,4,7-triene], the IC50 (in test [1]; in the test on total ATXN3 protein) was 501 to 5000 nM each time.

For `COCC#Cc1c(C[C@H](C)N)sc2c(NCc3cccs3)snc12` [Compound 15, 7-[(S)-2-aminopropyl]-8-(3-methoxy-1-propynyl)-4-thenylamino-3,6-dithia-2-azabicyclo[3.3.0]octa-1,4,7-triene], the IC50 (in test [1]; in the test on total ATXN3 protein) was 10000 to 40000 nM in each case.

`CCC#Cc1c(C[C@H](C)N)sc2c(NCc3cccs3)snc12` [Compound 16, 7-[(S)-2-aminopropyl]-8-(1-butynyl)-4-thenylamino-3,6-dithia-2-azabicyclo[3.3.0]octa-1,4,7-triene]: the IC50 (in test [1]; in the test on total ATXN3 protein) was 501 to 5000 nM throughout.

For `C[C@H](N)Cc1sc2c(NCc3cccs3)snc2c1C#CCF` [Compound 17, 7-[(S)-2-aminopropyl]-8-(3-fluoro-1-propynyl)-4-thenylamino-3,6-dithia-2-azabicyclo[3.3.0]octa-1,4,7-triene], the IC50 in test [1] lay within 101 to 500 nM; in the test with total ATXN3 protein, 501 to 5000 nM.

As to `CCC#Cc1c(C[C@@H](N)[C@H](C)F)sc2c(NCc3cccs3)snc12` [Compound 20, 7-[(2R,3S)-2-amino-3-fluorobutyl]-8-(1-butynyl)-4-thenylamino-3,6-dithia-2-azabicyclo[3.3.0]octa-1,4,7-triene], the half-maximal inhibitory concentration (IC50) (in test [1]; in the test with total ATXN3 protein) was 101 to 500 nM throughout.

As for `CC#Cc1c(C[C@@H](N)[C@H](C)F)sc2c(NCc3ccccc3)snc12` [Compound 21, 7-[(2R,3S)-2-amino-3-fluorobutyl]-4-benzylamino-8-(1-propynyl)-3,6-dithia-2-azabicyclo[3.3.0]octa-1,4,7-triene], the IC50 (in test [1]; with total ATXN3 protein) was 501 to 5000 nM each time.

Regarding `CC#Cc1c(C[C@@H](N)[C@H](C)F)sc2c(NCc3ccco3)snc12` [Compound 22, 7-[(2R,3S)-2-amino-3-fluorobutyl]-4-(furfurylamino)-8-(1-propynyl)-3,6-dithia-2-azabicyclo[3.3.0]octa-1,4,7-triene], the IC50 (in test [1]; in the test on total ATXN3 protein) was 0.01 to 100 nM throughout.

For the compound `CC#Cc1c(C[C@@H](N)[C@H](C)F)sc2c(NCc3cccs3)snc12` [Compound 23, 7-[(2R,3S)-2-amino-3-fluorobutyl]-8-(1-propynyl)-4-thenylamino-3,6-dithia-2-azabicyclo[3.3.0]octa-1,4,7-triene], the IC50 (in test [1]; with total ATXN3 protein) was 101 to 500 nM each time.

Turning to `CC#Cc1c(C[C@@H](N)COC)sc2c(NCc3ccccc3)snc12` [Compound 24, 7-[(R)-2-amino-3-methoxypropyl]-4-benzylamino-8-(1-propynyl)-3,6-dithia-2-azabicyclo[3.3.0]octa-1,4,7-triene], the IC50 in test [1] was 10000 to 40000 nM; in the test with total ATXN3 protein, 5000 to 10000 nM.

Turning to `CC#Cc1c(C[C@@H](N)COC)sc2c(NCc3ccco3)snc12` [Compound 25, 7-[(R)-2-amino-3-methoxypropyl]-4-(furfurylamino)-8-(1-propynyl)-3,6-dithia-2-azabicyclo[3.3.0]octa-1,4,7-triene], the IC50 in test [1] was in the range of 101 to 500 nM; in the test with total ATXN3 protein, 501 to 5000 nM.

As to `CC#Cc1c(C[C@@H](N)COC)sc2c(NCc3cccs3)snc12` [Compound 26, 7-[(R)-2-amino-3-methoxypropyl]-8-(1-propynyl)-4-thenylamino-3,6-dithia-2-azabicyclo[3.3.0]octa-1,4,7-triene], the IC50 (in test [1]; in the test with total ATXN3 protein) was 501 to 5000 nM in each case.

On to `C[C@H](N)Cc1sc2c(NCc3cccs3)snc2c1C#CCO` [Compound 27, 3-{7-[(S)-2-aminopropyl]-4-thenylamino-3,6-dithia-2-azabicyclo[3.3.0]octa-1,4,7-trien-8-yl}-2-propyn-1-ol], for which the IC50 (in test [1]; in the test with total ATXN3 protein) was 501 to 5000 nM in each case.

Turning to `CC#Cc1c(C(F)(F)[C@H](C)N)sc2c(NCc3cccs3)snc12` [Compound 28, 7-[(S)-2-amino-1,1-difluoropropyl]-8-(1-propynyl)-4-thenylamino-3,6-dithia-2-azabicyclo[3.3.0]octa-1,4,7-triene], the IC50 (in test [1]; in the test on total ATXN3 protein) was 501 to 5000 nM each time.

As to `CC#Cc1c(C[C@@H](N)CC2CC2)sc2c(NCc3cccs3)snc12` [Compound 29, 7-[(S)-2-amino-3-cyclopropylpropyl]-8-(1-propynyl)-4-thenylamino-3,6-dithia-2-azabicyclo[3.3.0]octa-1,4,7-triene], the IC50 (in test [1]; in the test on total ATXN3 protein) was 501 to 5000 nM in each case.

`CC#Cc1c(C[C@@H](N)CC2CC2)sc2c(NCc3ccco3)snc12` [Compound 30, 7-[(S)-2-amino-3-cyclopropylpropyl]-4-(furfurylamino)-8-(1-propynyl)-3,6-dithia-2-azabicyclo[3.3.0]octa-1,4,7-triene]: the IC50 (in test [1]; in the test on total ATXN3 protein) was 101 to 500 nM each time.

On to `CC#Cc1c(C[C@@H](N)C(F)F)sc2c(NCc3ccco3)snc12` [Compound 36, 7-[(R)-2-amino-3,3-difluoropropyl]-4-(furfurylamino)-8-(1-propynyl)-3,6-dithia-2-azabicyclo[3.3.0]octa-1,4,7-triene], for which the IC50 (in test [1]; in the test on total ATXN3 protein) was 501 to 5000 nM each time.

As to `CC#Cc1c(C[C@@H](N)C(F)F)sc2c(NCc3cccs3)snc12` [Compound 37, 7-[(R)-2-amino-3,3-difluoropropyl]-8-(1-propynyl)-4-thenylamino-3,6-dithia-2-azabicyclo[3.3.0]octa-1,4,7-triene], the IC50 lay in the range of 501 to 5000 nM in test [1] and 5000 to 10000 nM in the test with total ATXN3 protein.
